# Source: patent publication US10829778B2, “Plants having increased tolerance to herbicides” (BASF SE, priority 2013, dated 2020)
# System: non-transgenic Arabidopsis plants (WT)
# Test: Greenhouse herbicide spray test, Arabidopsis plants (T2)
# Assay type: in vivo, Arabidopsis thaliana
# Conditions: two weeks after treatment
# From the text: For post emergence treatment, the test plants are first grown to a height of 3 to 15 cm, depending on the plant habit, and only then treated with the herbicides. For this purpose, the test plants are either sown directly and grown in the same containers, or they are first grown separately and transplanted into the test containers a few days prior to treatment.
# Additionally, T1 and T2 transgenic Arabidopsis plants can be tested for improved tolerance to N-heterocyclyl-arylcarboxamides in a greenhouse studies. Herbicide injury scoring is done 2-3 weeks after treatment and is rated on a scale of 0 to 100%, 0% being no injury and 100% being complete death.
smiles,measurement,setting,value
"Cc1nonc1NC(=O)c1ccc(S(C)(=O)=O)c(S(C)(=O)=O)c1C [Inhibitor 1, 2-methyl-N-(4-methyl-1,2,5-oxadiazol-3-yl)-3,4-bis(methylsulfonyl)benzamide]",Injury evaluation,"WT (control of AtHPPD events), 1.56 g/ha",92%
same,Injury evaluation,"WT (control of AtHPPD events), 3.125 g/ha",91%
same,Injury evaluation,"WT (control of AtHPPD events), 6.25 g/ha",97%
same,Injury evaluation,"WT (control of AtHPPD events), 12.5 g/ha",97%
same,Injury evaluation,"WT (control of HvHPPD events), 1.56 g/ha",98%
same,Injury evaluation,"WT (control of HvHPPD events), 3.125 g/ha",98%
same,Injury evaluation,"WT (control of HvHPPD events), 6.25 g/ha",100%
same,Injury evaluation,"WT (control of HvHPPD events), 12.5 g/ha",100%
